1 compound from PMC11530130, “Peripherally restricted PICK1 inhibitor mPD5 ameliorates pain behaviors in murine inflammatory and neuropathic pain models” (JCI Insight, 2024) can be followed below.

Structures are written as SMILES. Where “and” joins values, the source holds several entries; their conditions need not be identical. Identical values can stand only once.

Series [1] is described as follows: Size exclusion chromatography (SEC), self-assembly. It counts as physicochemical. As to conditions: Superdex200 Increase 10/300; independent of initial concentration. The procedure: SUPPORTING INFORMATION: Method Section.
Sex as a biological variable.
All peptides were ordered from WuXI AppTec (Shanghai, China) or TAG-Copenhagen […]
Protein expression and purification.
Full length rat PICK1 (pET41) was, as described earlier (1), expressed in BL21-DE3-pLysS and grown at 37 °C, induced at OD600= 0.6 with 1 mM IPTG, and grown for 16 hours at 20 °C.
Cultures were harvested and re-suspended in 50 mM Tris, 125 mM NaCl, 2 mM DTT (Sigma), 1% Triton X-100 (Sigma), 20 µg/mL DNAse 1 and half a tablet of cOmplete protease inhibitor cocktail (Roche) pr. 1 L culture. The resuspended pellets were frozen at -80 °C for later purification. The lysate was cleared by centrifugation (36,000 x g for 30 min at 4 °C), and the supernatant was incubated with Glutathione-Sepharose 4B beads (GE Healthcare) for two hours at 4 °C under gentle rotation and then centrifuged at 4000 x g for 5 min. The supernatant was removed, and the beads were washed twice in 35 mL 50 mM Tris, 125 mM NaCl, 2 mM DTT, and 0.01% Triton-X100. The beads were transferred to PD-10 Bio-Spin® Chromatography columns (Bio-Rad) and washed with an additional 3 column volumes. Each column was sealed and 0.075 U/µL, Novagen® was added for cleavage O/N at 4 °C under gentle rotation. PICK1 was eluted on ice and concentration was measured on a NanoDrop 3000. […]
Size Exclusion Chromatography (SEC). […]

For series [2], the system named is mice, CFA model of inflammatory pain. Nature of the series: CFA model, Hargreaves test (thermally evoked pain). As to conditions: s.c. 10 μmol/kg. Format: in vivo, mouse. On the procedure:
Induction of inflammatory pain (CFA model).
Injury was induced on the right hind paw, whereas the contralateral left hind paw was used as internal control of the C57BL/6J male and female mice (Janvier, France). The inflammatory pain was induced by injection of 50 μL undiluted Complete Freund’s Adjuvant (CFA) (F5881, Sigma) unilaterally into the intraplantar surface of the right hind paw, whereas control mice were injected with the same amount of 0.9 % saline (B. Braun, Germany). All intraplantar injections were performed with an insulin needle (0.3 mL BD Micro-Fine) while the animal was under isoflurane anaesthesia (2%) for maximum 60 seconds. Von Frey was applied up to 11 days after unilateral CFA injection depending on the experiment. (For Figure 3A, the experiment was run in cohort with Figure 1A of (9)).
Induction of neuropathic pain (SNI model). […]
Post-surgical analgesia included s.c. injection of 5 mg/kg carprofen (Carprosan vet, 50 mg/mL mixed 1:25 in sterile ddH2O, Dechra, Le Vet Beheer B.V., Netherlands, Batch: 050520) right after surgery and the following day. Post-surgical care included daily severity scoring for four days, and medical clips removed. X-ray imaging (IVIS Lumina XR Apparatus, Caliper Life Sciences, Belgium) was conducted to estimate the relative femoral bone density of the ipsilateral femur at baseline and at the experimental endpoint. The test battery of the CIBP model was carried out 45 or 90 min after morphine and mPD5 administration respectively to accommodate the peak efficacy […]
Mechanically evoked pain (von Frey test).
Unless otherwise specified, von Frey occurred as described in the following. Animals were habituated to the experimental room for a minimum of 60 min before initiation of the experiment. Mechanical paw withdrawal threshold (PWT) was determined by von Frey measurements of both hind paws. Von Frey filaments ranging from 0.04 to 2 g (g = gram- […]
Filaments in ascending order were applied to the frontocentral plantar surface of the hind paws.
Mice were placed in PVC plastic boxes (11.5 cm x 14 cm) on a wire mesh and allowed minimum 20 min habituation prior of experiment initiation. Each von Frey hair was applied five times with adequate resting periods between each application and number of withdrawals recorded. The withdrawal threshold was determined as the von Frey filament eliciting at least three positive trials out of the five applications in two consecutive filaments. A positive trial was defined as sudden paw withdrawal, flinching and/or paw licking induced by the filament.
For the CIBP model, two habituation sessions were performed on separated days with mice placed in the von Frey equipment for 1-1.5 hours in the presence of the experimenter on day one and random von Frey pocking with the 0.6 g filament on day two. Von Frey monofilaments (North Coast Touch Test, North Coast Medical, Inc.) with target forces of 0.04g, 0.07g, 0.16g, […]
down method” (PWT=10Xf+kδ) starting with the 0.6 g filament. Positive response was defined as; withdrawal, shaking or grooming of paw following a 2-3 second stimulation. In case, of unclear response, stimulus was repeated after 10-15 seconds.
For the STZ model, the mechanical threshold response of the injected mice was measured with […]
injection of test compounds on day 14, mechanical threshold was measured at 1 hour, 2 hours, 4 hours and 6 hours and again on day 15. […]
Thermally evoked pain (Hargreaves test).
A baseline Hargreaves test was performed on day 0 before inflammatory pain was induced as described in section 2.13. In the Hargreaves test, the mouse was placed in a container on a glass table and left to habituate for at least 15 min. Using the Hargreaves apparatus, a heat beam from beneath was directed towards the hind paws of the mouse, and the paw withdrawal time […]
was registered automatically. The cut off was set to maximum 30 seconds to avoid skin injury and the experiment was repeated 5 times for each paw with at least five min in between […]
measurements. […]

In the case of `CCCCCCCCCCCCCC(=O)N(CCOCCOCCC(=O)N[C@@H](Cc1c[nH]cn1)C(=O)N[C@@H](Cc1c[nH]c2ccccc12)C(=O)N[C@@H](CC(C)C)C(=O)N[C@@H](CCCCN)C(=O)N[C@H](C(=O)O)C(C)C)CCOCCOCCC(=O)N[C@@H](Cc1c[nH]cn1)C(=O)N[C@@H](Cc1c[nH]c2ccccc12)C(=O)N[C@@H](CC(C)C)C(=O)N[C@@H](CCCCN)C(=O)N[C@H](C(=O)O)C(C)C` [mPD5, myristoyl-NPEG4-(HWLKV)2], the SEC elution volume entry in series [1] was “approximately 14.2 mL”. In addition, the “effect on the contralateral paw (Hargreaves)” value in series [2] is “No effect”. Moreover, the “effect on thermal hypersensitivity of the ipsilateral paw” value in series [2] (1 hour after administration) is listed as “reverted”. The “paw withdrawal latency (Hargreaves), individual mice” value in series [2] (contralateral paw, 1 h) is 10.93 and 8.17 and 12.67 and 7.53 and 10.3 and 14.03; in series [2] (contralateral paw, 5 h), 15.97 and 9.47 and 12.27 and 10.97 and 14.37 and 8.3; in series [2] (contralateral paw, 21 h), 15.23 and 12.33 and 19.73 and 9.13 and 7.03 and 15.57; in series [2] (ipsilateral paw, 1 h), 8.4 and 16.3 and 10.87 and 15.83 and 12.17 and 11.77; in series [2] (ipsilateral paw, 5 h), 10.8 and 9.77 (2×) and 5.13 and 6.33 and 4.77; in series [2] (ipsilateral paw, 21 h), 6.3 and 9.13 and 2.77 and 3.3 and 2.37 and 11.83.
